Source: ChEMBL document CHEMBL1201862, “PubChem BioAssay data set” (2004)
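Assay format: 96-well plates, 48-hour exposure. Abbreviation: GI50, concentration required for 50% inhibition of growth.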 Activity calls are given as the source filed them. Rule as the data show it: active = GI50 up to about 1.1 µM and inactive = higher.

Columns and labels:
Experiment in all cases: inhibition of tumour cell growth, NCI panel, 48 h
[1] = tested on: COLO 205
[2] = tested on: NCI-H226
[3] = tested on: HCC 2998
[4] = tested on: CAKI-1
[5] = tested on: HL-60
[6] = tested on: MDA-MB-435
[7] = tested on: U-251
[8] = tested on: SK-MEL-2
[9] = tested on: 786-0
[10] = tested on: OVCAR-8
[11] = tested on: SW-620
[12] = tested on: SF-295
[13] = tested on: NCI-H460
[14] = tested on: SNB-75
[15] = tested on: A549
[16] = tested on: SK-MEL-5
[17] = tested on: LOX IMVI
[18] = tested on: SK-MEL-28
[19] = tested on: HT-29
[20] = tested on: HOP-62
[21] = tested on: SF-268
[22] = tested on: OVCAR-4
[23] = tested on: SNB-19
[24] = tested on: ACHN
[25] = tested on: NCI-H23
[26] = tested on: NCI-H522
[27] = tested on: SN12C
[28] = tested on: K562
[29] = tested on: Hs-578T
[30] = tested on: NCI/ADR-RES
[31] = tested on: MOLT-4
[32] = tested on: OVCAR-3
[33] = tested on: HOP-92
[34] = tested on: EKVX
[35] = tested on: M14
[36] = tested on: KM12
[37] = tested on: IGROV-1
[38] = tested on: A498
[39] = tested on: PC-3
[40] = tested on: UACC-62
[41] = tested on: SR
[42] = tested on: RXF 393
[43] = tested on: MDA-MB-231
[44] = tested on: DU-145
[45] = tested on: TK-10
[46] = tested on: MCF7
[47] = tested on: Malme-3M
[48] = tested on: CCRF-CEM
[49] = tested on: BT-549
[50] = tested on: HCT-15
[51] = tested on: OVCAR-5
[52] = tested on: RPMI-8226
[53] = tested on: UACC-257
[54] = tested on: SF-539
[55] = tested on: HCT-116
[56] = tested on: UO-31
[57] = tested on: MDA-N
[58] = tested on: SK-OV-3
[59] = tested on: T47D

In the case of `CCOC(=O)C(=Cc1ccccc1Br)C(=O)OCC`, the GI50 [1] is reported as 2.8 µM (inactive), the GI50 [2] is reported as 3.51 µM (inactive) and the GI50 [3] is reported as 2.78 µM (inactive). The GI50 [4] was 2.53 µM (inactive), the GI50 [5] was 0.585 µM (active) and the GI50 [6] was 1.69 µM (inactive). For the same compound, the GI50 [7] was 1.66 µM (inactive), the GI50 [8] was 2.14 µM (inactive) and the GI50 [9] was 3.05 µM (inactive). For the same compound, the GI50 [10] was 2.38 µM (inactive), the GI50 [11] was 1.97 µM (inactive) and the GI50 [12] was 3.26 µM (inactive). The GI50 [13] was 3.26 µM (inactive), the GI50 [14] was 5.58 µM (inactive) and the GI50 [15] was 4 µM (inactive). The GI50 [16] was 1.85 µM (inactive), the GI50 [17] was 0.695 µM (active) and the GI50 [18] was 2.4 µM (inactive). The GI50 [19] was 3.36 µM (inactive), the GI50 [20] was 2.37 µM (inactive) and the GI50 [21] was 3.11 µM (inactive). The GI50 [22] was 4.09 µM (inactive), the GI50 [23] was 2.53 µM (inactive) and the GI50 [24] was 2.59 µM (inactive). The GI50 [25] was 2.48 µM (inactive), the GI50 [26] was 1.64 µM (inactive) and the GI50 [27] was 2.84 µM (inactive). For the same compound, the GI50 [28] was 656 nM (active), the GI50 [29] was 3.4 µM (inactive) and the GI50 [30] was 4.65 µM (inactive). The GI50 [31] was 0.32 µM (active), the GI50 [32] was 2.07 µM (inactive) and the GI50 [33] was 3.4 µM (inactive). For the same compound, the GI50 [34] was 4.18 µM (inactive), the GI50 [35] was 0.424 µM (active) and the GI50 [36] was 1.62 µM (inactive). For the same compound, the GI50 [37] was 1.96 µM (inactive), the GI50 [38] was 2.03 µM (inactive) and the GI50 [39] was 2.93 µM (inactive). The GI50 [40] was 1.72 µM (inactive), the GI50 [41] was 0.208 µM (active) and the GI50 [42] was 2.1 µM (inactive). For the same compound, the GI50 [43] was 6.41 µM (inactive), the GI50 [44] was 0.508 µM (active) and the GI50 [45] was 3.47 µM (inactive). The GI50 [46] was 1.55 µM (inactive), the GI50 [47] was 3.48 µM (inactive) and the GI50 [48] was 9.23 µM (inactive). For the same compound, the GI50 [49] was 2.51 µM (inactive), the GI50 [50] was 1.67 µM and the GI50 [51] was 6.5 µM (inactive). For the same compound, the GI50 [52] was 2.23 µM (inactive), the GI50 [53] was 3.58 µM (inactive) and the GI50 [54] was 2.34 µM (inactive). The GI50 [55] was 2.95 µM (inactive) and the GI50 [56] was 2.25 µM (inactive).
In the case of `S=C(/C=C1\SC(=N\c2ccccc2)/C(=N/c2ccccc2)N1c1ccccc1)Nc1ccccc1`, the GI50 [1] is reported as > 100 µM (inactive), the GI50 [4] is reported as > 100 µM (inactive) and the GI50 [5] is reported as > 100 µM (inactive). The GI50 [6] was > 100 µM (inactive), the GI50 [7] was > 100 µM (inactive) and the GI50 [8] was > 100 µM (inactive). For the same compound, the GI50 [10] was > 100 µM (inactive), the GI50 [12] was > 100 µM (inactive) and the GI50 [13] was > 100 µM (inactive). The GI50 [57] was > 100 µM (inactive), the GI50 [14] was > 100 µM (inactive) and the GI50 [16] was > 100 µM (inactive). The GI50 [18] was > 100 µM (inactive), the GI50 [19] was > 100 µM (inactive) and the GI50 [20] was > 100 µM (inactive). For the same compound, the GI50 [58] was 67.3 µM (inactive), the GI50 [25] was > 100 µM (inactive) and the GI50 [26] was > 100 µM (inactive). For the same compound, the GI50 [27] was > 100 µM (inactive), the GI50 [29] was > 100 µM (inactive) and the GI50 [30] was > 100 µM (inactive). For the same compound, the GI50 [31] was 15.2 µM (inactive), the GI50 [32] was > 100 µM (inactive) and the GI50 [33] was > 100 µM (inactive). The GI50 [35] was > 100 µM (inactive), the GI50 [36] was > 100 µM (inactive) and the GI50 [37] was > 100 µM (inactive). For the same compound, the GI50 [38] was > 100 µM (inactive), the GI50 [39] was > 100 µM (inactive) and the GI50 [40] was 51.6 µM (inactive). The GI50 [41] was > 100 µM (inactive), the GI50 [43] was > 100 µM (inactive) and the GI50 [44] was > 100 µM (inactive). For the same compound, the GI50 [47] was > 100 µM (inactive), the GI50 [48] was 3.66 µM (inactive) and the GI50 [50] was greater than 100 µM. The GI50 [52] was > 100 µM (inactive), the GI50 [59] was > 100 µM (inactive) and the GI50 [55] was > 100 µM (inactive).
For `CCN(CC)CC1CCCCN1CC(=O)N1c2ccccc2C(=O)Nc2cccnc21` (configuration not stated) [OTENZEPAD], the GI50 [1] was 23.2 µM (inactive), the GI50 [2] was 41 µM (inactive) and the GI50 [3] was > 100 µM (inactive). For the same compound, the GI50 [4] was > 100 µM (inactive), the GI50 [5] was 17.4 µM (inactive) and the GI50 [6] was 63 µM (inactive). The GI50 [7] was 60.5 µM (inactive), the GI50 [8] was > 100 µM (inactive) and the GI50 [9] was 35.4 µM (inactive). The GI50 [10] was 45.4 µM (inactive), the GI50 [11] was 36.7 µM (inactive) and the GI50 [12] was > 100 µM (inactive). For the same compound, the GI50 [13] was 59.3 µM (inactive), the GI50 [57] was 66.2 µM (inactive) and the GI50 [14] was 99.1 µM (inactive). For the same compound, the GI50 [15] was 17 µM (inactive), the GI50 [16] was > 100 µM (inactive) and the GI50 [17] was 18.3 µM (inactive). The GI50 [18] was > 100 µM (inactive), the GI50 [19] was 21.8 µM (inactive) and the GI50 [20] was 34.7 µM (inactive). The GI50 [21] was 59.2 µM (inactive), the GI50 [22] was 38.9 µM (inactive) and the GI50 [23] was > 100 µM (inactive). The GI50 [24] was 56 µM (inactive), the GI50 [58] was > 100 µM (inactive) and the GI50 [25] was 52 µM (inactive). For the same compound, the GI50 [26] was > 100 µM (inactive), the GI50 [27] was 50.9 µM (inactive) and the GI50 [29] was 93.1 µM (inactive). The GI50 [30] was 20.8 µM (inactive), the GI50 [31] was 21 µM (inactive) and the GI50 [32] was > 100 µM (inactive). The GI50 [33] was > 100 µM (inactive), the GI50 [34] was > 100 µM (inactive) and the GI50 [35] was 68.9 µM (inactive). For the same compound, the GI50 [36] was 66.7 µM (inactive), the GI50 [37] was > 100 µM (inactive) and the GI50 [38] was > 100 µM (inactive). The GI50 [39] was 36.8 µM (inactive), the GI50 [40] was 91.4 µM (inactive) and the GI50 [41] was 28.1 µM (inactive). For the same compound, the GI50 [42] was > 100 µM (inactive), the GI50 [43] was 32.1 µM (inactive) and the GI50 [44] was > 100 µM (inactive). For the same compound, the GI50 [45] was > 100 µM (inactive), the GI50 [46] was 27.9 µM (inactive) and the GI50 [47] was > 100 µM (inactive). The GI50 [48] was 19 µM (inactive), the GI50 [50] was 38.6 µM and the GI50 [51] was 83.2 µM (inactive). For the same compound, the GI50 [52] was 35.6 µM (inactive), the GI50 [59] was > 100 µM (inactive) and the GI50 [53] was 38.1 µM (inactive). For the same compound, the GI50 [54] was 40.6 µM (inactive), the GI50 [55] was 12.2 µM (inactive) and the GI50 [56] was 1.97 µM (inactive).
